Experimental findings from ChEMBL document CHEMBL5465560, “Selectivity Literature for EUbOPEN Chemogenomic Library” (2024) are described below.

Molecules are shown by their SMILES.

The target in assay [1] is T1, Serine/threonine-protein kinase LATS1 (Homo sapiens) (UniProt O95835).
T1 sequence (whole entry): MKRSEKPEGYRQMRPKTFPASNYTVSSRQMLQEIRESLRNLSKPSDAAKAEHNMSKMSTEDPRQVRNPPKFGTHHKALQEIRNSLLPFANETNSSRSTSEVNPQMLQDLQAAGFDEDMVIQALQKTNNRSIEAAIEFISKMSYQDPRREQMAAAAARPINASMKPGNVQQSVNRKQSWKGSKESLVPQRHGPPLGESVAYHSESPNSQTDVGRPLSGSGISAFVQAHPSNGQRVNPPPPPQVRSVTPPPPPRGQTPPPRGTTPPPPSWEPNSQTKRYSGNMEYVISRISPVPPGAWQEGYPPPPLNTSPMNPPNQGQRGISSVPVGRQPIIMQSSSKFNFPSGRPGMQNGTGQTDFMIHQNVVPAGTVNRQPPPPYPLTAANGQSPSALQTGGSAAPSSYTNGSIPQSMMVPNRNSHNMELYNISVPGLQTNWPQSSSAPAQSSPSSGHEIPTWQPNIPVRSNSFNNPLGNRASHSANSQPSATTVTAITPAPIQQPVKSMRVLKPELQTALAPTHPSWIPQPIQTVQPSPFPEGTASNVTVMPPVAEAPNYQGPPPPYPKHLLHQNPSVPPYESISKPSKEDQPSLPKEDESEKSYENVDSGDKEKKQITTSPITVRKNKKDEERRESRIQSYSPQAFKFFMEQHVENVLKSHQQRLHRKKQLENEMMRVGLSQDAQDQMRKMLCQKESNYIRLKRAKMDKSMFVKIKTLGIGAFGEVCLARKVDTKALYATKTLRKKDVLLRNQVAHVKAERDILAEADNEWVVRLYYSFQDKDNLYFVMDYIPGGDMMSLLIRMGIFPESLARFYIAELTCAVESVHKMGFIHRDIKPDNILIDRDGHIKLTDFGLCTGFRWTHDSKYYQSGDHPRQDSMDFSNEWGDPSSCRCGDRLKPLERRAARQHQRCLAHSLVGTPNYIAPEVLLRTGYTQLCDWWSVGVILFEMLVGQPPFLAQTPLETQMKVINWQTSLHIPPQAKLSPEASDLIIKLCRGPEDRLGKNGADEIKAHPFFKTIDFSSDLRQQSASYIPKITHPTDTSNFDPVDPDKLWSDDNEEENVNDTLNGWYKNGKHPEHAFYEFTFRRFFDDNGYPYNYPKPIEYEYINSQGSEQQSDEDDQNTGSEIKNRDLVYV
Description: Selectivity interaction (LanthaScreen Eu Kinase Binding Assay) EUB0001632a LATS1. The following applies: at 10 µM. A general note: In TR-FRET formats the signal depends on donor and acceptor labels being close together.

Assay [2] concerns the target Casein kinase II subunit alpha (Homo sapiens, UniProt P68400). Description: Selectivity interaction (KinomeScan (DiscoverX)) EUB0001619a CSNK2A1. The following applies: at 1 µM.
The target of assay [3] is LIM domain kinase 2 (Homo sapiens) (UniProt P53671). The experiment in a line: Selectivity interaction (KinomeScan (DiscoverX)) EUB0001619a LIMK2. To be noted: at 1 µM.
Chain of LIM domain kinase 2 (Homo sapiens) (P53671 whole entry, looked up, the tested form may be a part): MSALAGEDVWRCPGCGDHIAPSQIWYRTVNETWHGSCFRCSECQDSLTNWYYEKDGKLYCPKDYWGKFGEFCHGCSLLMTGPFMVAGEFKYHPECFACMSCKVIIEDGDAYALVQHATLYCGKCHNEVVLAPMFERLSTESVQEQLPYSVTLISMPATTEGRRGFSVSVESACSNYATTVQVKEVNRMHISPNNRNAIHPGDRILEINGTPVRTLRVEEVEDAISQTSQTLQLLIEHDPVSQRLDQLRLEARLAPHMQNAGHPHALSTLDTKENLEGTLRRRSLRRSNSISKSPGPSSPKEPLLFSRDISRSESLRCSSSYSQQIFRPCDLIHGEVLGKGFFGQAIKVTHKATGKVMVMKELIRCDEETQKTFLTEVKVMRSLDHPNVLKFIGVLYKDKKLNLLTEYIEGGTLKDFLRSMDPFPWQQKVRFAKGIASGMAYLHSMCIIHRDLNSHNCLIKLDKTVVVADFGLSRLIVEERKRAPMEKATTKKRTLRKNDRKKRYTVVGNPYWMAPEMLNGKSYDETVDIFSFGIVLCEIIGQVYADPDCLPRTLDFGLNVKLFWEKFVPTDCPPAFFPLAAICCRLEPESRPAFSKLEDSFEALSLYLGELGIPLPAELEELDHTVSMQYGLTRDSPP
In assay [4] the target is Beta-2 adrenergic receptor (Homo sapiens, UniProt P07550). Description: Selectivity interaction (Eurofins CEREP Diversity Profile (receptors and ion channels)) EUB0000279b ADRB2. The following applies: at 10 µM.
Chain of Beta-2 adrenergic receptor (P07550 whole entry, looked up): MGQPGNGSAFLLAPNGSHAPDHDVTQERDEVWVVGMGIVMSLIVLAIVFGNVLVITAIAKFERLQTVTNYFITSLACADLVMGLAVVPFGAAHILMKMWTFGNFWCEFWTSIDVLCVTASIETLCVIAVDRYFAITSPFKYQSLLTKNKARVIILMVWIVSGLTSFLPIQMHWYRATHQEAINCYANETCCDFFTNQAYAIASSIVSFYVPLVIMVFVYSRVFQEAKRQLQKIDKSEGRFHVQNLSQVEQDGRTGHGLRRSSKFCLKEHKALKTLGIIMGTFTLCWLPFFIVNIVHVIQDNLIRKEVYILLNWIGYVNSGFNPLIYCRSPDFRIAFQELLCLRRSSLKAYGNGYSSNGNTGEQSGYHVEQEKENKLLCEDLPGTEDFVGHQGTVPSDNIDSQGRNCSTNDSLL
In assay [5] the target is Serine/threonine-protein kinase 32B (Homo sapiens) (UniProt Q9NY57). The following applies: at 10 µM.
Chain of Serine/threonine-protein kinase 32B (Homo sapiens) (Q9NY57 whole entry): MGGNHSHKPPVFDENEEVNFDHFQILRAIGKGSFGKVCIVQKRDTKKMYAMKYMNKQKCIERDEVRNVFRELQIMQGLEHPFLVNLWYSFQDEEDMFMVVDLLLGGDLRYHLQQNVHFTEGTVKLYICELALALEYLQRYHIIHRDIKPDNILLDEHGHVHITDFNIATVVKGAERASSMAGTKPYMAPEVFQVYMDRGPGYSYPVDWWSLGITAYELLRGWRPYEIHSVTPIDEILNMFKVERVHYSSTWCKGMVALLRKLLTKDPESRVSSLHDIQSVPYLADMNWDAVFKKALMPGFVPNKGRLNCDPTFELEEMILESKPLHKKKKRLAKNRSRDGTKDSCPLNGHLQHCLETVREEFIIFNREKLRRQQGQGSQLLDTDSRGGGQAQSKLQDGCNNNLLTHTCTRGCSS
Assay [6] addresses T2, Interleukin-1 receptor-associated kinase 3 (Homo sapiens) (UniProt Q9Y616).
T2 sequence (whole entry): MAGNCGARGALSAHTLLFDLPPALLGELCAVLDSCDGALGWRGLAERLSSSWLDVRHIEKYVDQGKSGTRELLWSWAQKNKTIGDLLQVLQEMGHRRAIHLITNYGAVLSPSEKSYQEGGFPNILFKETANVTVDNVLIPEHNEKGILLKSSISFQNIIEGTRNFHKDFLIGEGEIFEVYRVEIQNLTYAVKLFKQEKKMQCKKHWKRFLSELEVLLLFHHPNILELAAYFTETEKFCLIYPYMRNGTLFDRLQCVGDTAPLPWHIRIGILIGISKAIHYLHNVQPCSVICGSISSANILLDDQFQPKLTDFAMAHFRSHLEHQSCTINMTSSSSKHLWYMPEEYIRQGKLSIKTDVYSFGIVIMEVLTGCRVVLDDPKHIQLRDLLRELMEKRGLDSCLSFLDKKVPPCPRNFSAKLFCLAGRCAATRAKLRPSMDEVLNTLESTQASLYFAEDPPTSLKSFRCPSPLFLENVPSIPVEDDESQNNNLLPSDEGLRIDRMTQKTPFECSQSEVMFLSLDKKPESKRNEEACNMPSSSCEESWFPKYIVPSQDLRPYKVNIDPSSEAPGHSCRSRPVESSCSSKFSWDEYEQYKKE
Description: Selectivity interaction (ActivX KiNativ screen (kinase selectivity in THP-1 cell lysates)) EUB0000639a IRAK3. It counts as subcellular. The following applies: lysate, at 0.04 µM.

The target of assay [7] is T3, Tyrosine-protein kinase ZAP-70 (Homo sapiens) (UniProt P43403).
T3 sequence (whole entry): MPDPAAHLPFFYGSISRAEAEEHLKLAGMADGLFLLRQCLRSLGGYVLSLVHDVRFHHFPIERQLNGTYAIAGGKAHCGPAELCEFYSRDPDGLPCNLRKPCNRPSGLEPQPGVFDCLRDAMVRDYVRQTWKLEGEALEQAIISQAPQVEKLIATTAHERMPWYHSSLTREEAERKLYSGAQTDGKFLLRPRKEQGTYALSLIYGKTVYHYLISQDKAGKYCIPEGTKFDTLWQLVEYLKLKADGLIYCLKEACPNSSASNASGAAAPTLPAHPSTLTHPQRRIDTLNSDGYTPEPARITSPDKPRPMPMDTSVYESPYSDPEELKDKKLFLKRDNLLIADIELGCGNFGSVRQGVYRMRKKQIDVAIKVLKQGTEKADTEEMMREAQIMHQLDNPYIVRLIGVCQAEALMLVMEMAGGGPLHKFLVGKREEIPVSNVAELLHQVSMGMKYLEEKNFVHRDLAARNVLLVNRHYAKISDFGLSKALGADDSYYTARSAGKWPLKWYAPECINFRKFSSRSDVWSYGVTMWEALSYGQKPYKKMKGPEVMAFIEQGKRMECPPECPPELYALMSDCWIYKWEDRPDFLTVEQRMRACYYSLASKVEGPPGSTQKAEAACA
The experiment in a line: Selectivity interaction (KinomeScan (DiscoverX)) EUB0000092b ZAP70. The following applies: at 10 µM.

The target of assay [8] is Receptor-type tyrosine-protein kinase FLT3 (Homo sapiens) (UniProt P36888). The experiment in a line: Selectivity interaction (KinomeScan (DiscoverX)) EUB0001079a FLT3. The following applies: at 1 µM.
Chain of Receptor-type tyrosine-protein kinase FLT3 (Homo sapiens) (P36888 whole entry, canonical isoform): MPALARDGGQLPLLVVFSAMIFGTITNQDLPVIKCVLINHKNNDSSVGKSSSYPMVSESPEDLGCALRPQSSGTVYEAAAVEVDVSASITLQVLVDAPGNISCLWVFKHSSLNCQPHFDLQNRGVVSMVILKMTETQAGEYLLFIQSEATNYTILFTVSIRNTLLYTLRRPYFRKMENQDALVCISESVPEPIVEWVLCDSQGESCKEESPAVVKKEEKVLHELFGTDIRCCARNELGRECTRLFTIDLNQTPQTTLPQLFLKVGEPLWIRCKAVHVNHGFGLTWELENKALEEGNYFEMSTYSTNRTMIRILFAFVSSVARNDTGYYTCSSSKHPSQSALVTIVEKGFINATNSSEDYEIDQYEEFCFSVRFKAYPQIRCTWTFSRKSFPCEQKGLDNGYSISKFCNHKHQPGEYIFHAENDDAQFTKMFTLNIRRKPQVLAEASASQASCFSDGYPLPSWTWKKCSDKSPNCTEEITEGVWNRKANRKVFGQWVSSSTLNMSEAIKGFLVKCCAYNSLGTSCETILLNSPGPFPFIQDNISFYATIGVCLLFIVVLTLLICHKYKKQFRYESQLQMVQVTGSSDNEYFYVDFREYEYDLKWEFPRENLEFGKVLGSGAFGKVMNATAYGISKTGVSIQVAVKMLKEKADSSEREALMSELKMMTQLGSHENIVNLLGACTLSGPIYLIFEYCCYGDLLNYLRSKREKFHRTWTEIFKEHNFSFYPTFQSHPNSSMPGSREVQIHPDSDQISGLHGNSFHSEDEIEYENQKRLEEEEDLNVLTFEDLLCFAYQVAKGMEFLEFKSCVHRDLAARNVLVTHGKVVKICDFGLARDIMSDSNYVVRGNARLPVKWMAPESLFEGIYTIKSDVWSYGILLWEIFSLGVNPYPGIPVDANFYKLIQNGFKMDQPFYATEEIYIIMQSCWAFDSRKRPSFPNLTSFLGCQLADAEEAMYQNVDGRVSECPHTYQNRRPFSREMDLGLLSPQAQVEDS
For assay [9], the target named is Casein kinase I isoform delta (Homo sapiens, UniProt P48730). Description: Selectivity interaction (Millipore kinase profiler) EUB0000124b CSNK1D. To be noted: at 10 µM.
Chain of Casein kinase I isoform delta (P48730 whole entry, looked up, canonical isoform): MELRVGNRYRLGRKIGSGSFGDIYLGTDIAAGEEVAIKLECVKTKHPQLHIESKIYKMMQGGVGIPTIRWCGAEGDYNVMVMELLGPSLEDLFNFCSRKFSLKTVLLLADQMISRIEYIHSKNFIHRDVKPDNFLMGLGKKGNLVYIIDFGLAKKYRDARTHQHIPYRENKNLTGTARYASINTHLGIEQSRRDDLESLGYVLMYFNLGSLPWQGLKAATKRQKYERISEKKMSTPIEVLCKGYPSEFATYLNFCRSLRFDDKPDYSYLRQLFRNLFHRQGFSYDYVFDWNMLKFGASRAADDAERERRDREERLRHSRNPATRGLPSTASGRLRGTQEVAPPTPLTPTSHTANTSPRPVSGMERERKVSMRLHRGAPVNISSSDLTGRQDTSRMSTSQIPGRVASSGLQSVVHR

Chain of Casein kinase II subunit alpha (P68400 whole entry, looked up, the tested form may be a part): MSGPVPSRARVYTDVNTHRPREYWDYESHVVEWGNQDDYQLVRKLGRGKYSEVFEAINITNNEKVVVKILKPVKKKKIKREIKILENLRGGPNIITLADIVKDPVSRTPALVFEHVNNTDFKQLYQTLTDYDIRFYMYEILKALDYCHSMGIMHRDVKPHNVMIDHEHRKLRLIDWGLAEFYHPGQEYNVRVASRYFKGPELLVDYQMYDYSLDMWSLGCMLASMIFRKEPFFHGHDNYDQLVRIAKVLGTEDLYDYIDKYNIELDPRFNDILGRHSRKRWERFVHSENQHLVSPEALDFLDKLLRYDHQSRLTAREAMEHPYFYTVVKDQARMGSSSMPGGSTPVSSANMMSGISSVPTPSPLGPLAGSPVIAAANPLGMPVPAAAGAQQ

With `Cn1cc(-n2cnc3c(NCc4nc5cc(Cl)c(Cl)cc5[nH]4)nc(N4CCOCC4)nc32)cn1`, the % of inhibition in assay [1] is -63.1%.
For `N#Cc1cccc(-c2c[nH]c3ncnc(N4CCOCC4)c23)c1`, the % of control in assay [2] was determined as 75%; in [3] it was 96%.
In assay [4], `CC(=O)c1cc(-c2ccccc2OCC2CC2)c2ncccn12` had a % of control of 99%.
`CCN(CC)CCCCNc1ncc2cc(-c3cc(OC)cc(OC)c3)c(NC(=O)NC(C)(C)C)nc2n1` gave a % of control in assay [5] of 100%.
Take `CC[C@@H]1[C@H](F)C(=O)N[C@@H]1COc1nccc2cc(C(N)=O)c(OC)cc12` [ZIMLOVISERTIB]: the % of inhibition in assay [6] was -1.7%.
`CCC(=O)N1CCN(c2ccc(-n3c(=O)ccc4cnc5ccc(-c6cnc7ccccc7c6)cc5c43)cc2C(F)(F)F)CC1`: the % of control in assay [7] came to 100%.
`Nc1cnc(N2CCc3cc(S(=O)(=O)Nc4c(F)cc(Cl)cc4F)cc(N4CCCC4=O)c32)nc1` [TP-020n] gave a % of control in [8] of 91%.
Compound `CC(=O)Nc1cccc(-n2c(=O)n(C3CC3)c(=O)c3c(Nc4ccc(I)cc4F)n(C)c(=O)c(C)c32)c1` displayed a % of control in assay [9] of 105%.
